Data set [1] in a line: ADMA fluorescent probe test: rate of total Type 1 and 2 ROS production by an illuminated photosensitizer (k-value). The conditions noted are these: for k (rate constant of Type 1 and 2 ROS production, slope of Ln(I/I0) of ADMA vs time): free PS illuminated at the wavelength of its maxima, [PS] E-6 (clinically relevant 1-2 uM); for k′ (k/kstd): relative to methylene blue (MB) as standard; for k″ (1−k′): x coordinate of PS grid, MB = origin. The format is physicochemical. The source says:
(§1) Discussed below are evaluations methods and system for evaluating a PS for Type ½ Production. The above describes the parameters that would best define an ideal practical PS. […] This can be semi-quantitatively analyzed using fluorescent molecular probes that scavenge Type ½ ROS. Two specific probes ideal for this are 9,10-anthracene bis(methylene) dimalonic acid (ADMA) and singlet oxygen sensor green (SOSG).
(§2) Anthracene and its derivatives are sensitive to both Type 1 and Type 2 ROS, while SOSG is specifically for Type 2 ROS studies.^9 By tracking the fluorescent changes of these probes over time, the Type ½ ROS and rates of production by a set of PSs can be directly compared in a semi-quantitative manner. In the work to follow, AMDA is the anthracene derivative utilized.
ADMA decays according to first order rate law kinetics. As such, the rate of total Type 1 and 2 ROS may be studied by tracking its fluorescence loss over time as a natural log, yielding a linear plot whose slope is the rate constant of Type 1 and 2 ROS production (referred to as the k-value). The greater the rate constant, the more Type 1 and Type 2 ROS being produced, and thus PSs compared under identical conditions (equivalent [PS], [02], flux, temp) can be semi-quantitatively compared.
(§3) Combining the findings of the SOSG and ADMA tests, semi-quantitative comparisons and estimates about the performance of PSs in a given set may be extrapolated, when performed under identical conditions (equivalent [PS], [O2], flux, temp). This will aid in choosing a PS that maximizes PDT efficacy by showing it has a minimum of Type 1 ROS and maximum of Type 2 ROS production, while also producing at a sufficient rate to efficiently ablate tissue.
(§4) The exact method of study is as follows, using a factory default Horiba Duetta:
(§5) 3. Pulse the molecular probe for initial fluorescence
(§6) • a. Simple fluorescence scan • b. […] Ex/Em slits for both=⅔ nm, Integration for 1 second, 5 scans • e. The peak of highest counts is used 2. The PS is illuminated using the wavelength of its maxima for a set amount of time • a. Fixed wavelength fluorescent study mode; choose a time point desired • b. Ex/Em bandwidth=10/1 nm 4. Pulse the molecular probe for fluorescent changes 5. Repeat Steps 2 and 3 until the range time values desired is covered 6. Treat the data • a. Anthracene=Ln(I/I0) vs time; slope=k-value • b. SOSG=I/I0 vs time; slope=S-value
(§7) Using a PS as an assigned origin (standard by which all other PSs are compared to), any PS may be charted by comparing the k and S-values (k/kstd=k′, S/Sstd=S′, k″=1−k′, S″=S′−1) at clinically relevant concentrations (1-2 uM). By plotting the k″ and S″ values as x,y coordinates (respectively), the semi-quantitative comparison of PSs against each other may be directly visualized; the origin PS will have a position of 0,0. The x-axis will then stretch from −∞ to 1, and y-axis from −1 to ∞.

Data set [2] in a line: SOSG (singlet oxygen sensor green) fluorescent probe test: Type 2 ROS production by an illuminated photosensitizer (S-value). The format is physicochemical. The conditions noted are these: for S (slope of SOSG I/I0 vs time, Type 2 ROS production): free PS illuminated at the wavelength of its maxima, [PS] E-6 (clinically relevant 1-2 uM); for S′ (S/Sstd): relative to methylene blue (MB) as standard; for S″ (S′−1): y coordinate of PS grid, MB = origin.
From the text: as §1, §2
SOSG functions in a manner opposite to that of the anthracene probe; instead of a fluorescence loss, SOSG experiences a fluorescence enhancement when interacting with Type 2 ROS; Type 1 ROS has no effect. […] Therefore, the steeper the slope (S-value), the more Type 2 ROS being produced.
as §3, §4, §5, §6, §7

For data set [3] the following is noted: cited from earlier work.
The conditions of data set [4]: when covalently conjugated to 8PEGA; cited from earlier work.

Consider `CN(C)c1ccc2nc3ccc(=[N+](C)C)cc-3sc2c1` [MB, Methylene blue], for which, in data set [1], the “k (rate constant of Type 1 and 2 ROS production, slope of Ln(I/I0) of ADMA vs time)” value is 6.13 E-4 s^−1; the “k′ (k/kstd)” value was found to be 1; the “k″ (1−k′)” value was 0.00. Also, in data set [2], the “S (slope of SOSG I/I0 vs time, Type 2 ROS production)” value is reported as 0.46 E−2 s^−1; the “S′ (S/Sstd)” value stood at 1; the “S″ (S′−1)” value was determined as 0.00.

Turning to `CCNc1cc2[s+]c3cc(NCC)c(C)cc3nc2cc1C.[Cl-]` [NMB, New Methylene Blue], in data set [1], the “k (rate constant of Type 1 and 2 ROS production, slope of Ln(I/I0) of ADMA vs time)” value was 12.1 E-4 s^−1; the “k′ (k/kstd)” value is on record as 1.97; the “k″ (1−k′)” value is recorded as −0.97. In data set [2], the “S (slope of SOSG I/I0 vs time, Type 2 ROS production)” value was 0.96 E−2 s^−1; the “S′ (S/Sstd)” value worked out at 2.09; the “S″ (S′−1)” value is listed as 1.09.

With Chlorin e6 [Ce6], in data set [1], the “k (rate constant of Type 1 and 2 ROS production, slope of Ln(I/I0) of ADMA vs time)” value is reported as 0.94 E-4 s^−1; the “k′ (k/kstd)” value came out at 0.153; the “k″ (1−k′)” value turned out to be 0.85. Further, the “solubility in aqueous media” value in data set [3] (when covalently conjugated to 8PEGA) was “markedly enhanced”. Moreover, the k-values result in data set [4] is “improved”. In addition, in data set [2], the “S (slope of SOSG I/I0 vs time, Type 2 ROS production)” value is listed as 0.73 E−2 s^−1; the “S′ (S/Sstd)” value stood at 1.59; the “S″ (S′−1)” value came to 0.59.

On to IRDye 700DX HHS Ester [IR700], for which, in data set [1] ([PS] 3.99E−06), the “k-vlaue (E-4)” value is 2.62 E-4. For the same compound, in data set [1], the “k (rate constant of Type 1 and 2 ROS production, slope of Ln(I/I0) of ADMA vs time)” value is reported as 1.83 E-4 s^−1; the “k′ (k/kstd)” value amounted to 0.299; the “k″ (1−k′)” value was determined as 0.70. In data set [3], the solubility in water entry is given as “water soluble, having good solubility”. For the same compound, in data set [2] ([PS] 3.91E−06), the “SOSG (E-2)” value is 2.89 E-2. Further, in data set [2], the “S (slope of SOSG I/I0 vs time, Type 2 ROS production)” value is recorded as 2.04 E−2 s^−1; the “S′ (S/Sstd)” value is 4.43; the “S″ (S′−1)” value is given as 3.43.

Take Verteporfin: in data set [1], the “k (rate constant of Type 1 and 2 ROS production, slope of Ln(I/I0) of ADMA vs time)” value is recorded as 0.16 E-4 s^−1; the “k′ (k/kstd)” value was determined as 0.03; the “k″ (1−k′)” value is on record as 0.97. In data set [2], the “S (slope of SOSG I/I0 vs time, Type 2 ROS production)” value was 0.06 E−2 s^−1; the “S′ (S/Sstd)” value is recorded as 0.13; the “S″ (S′−1)” value is −0.87.

The record behind these values is patent publication US12005125B2, “Nanoparticles for use in photodynamic therapies and methods of making, evaluating and using the same” (Mi2 Holdings LLC, priority 2020, dated 2024).
